Consider 25 molecules from the supplement of paper PMC6470124.

The nature of series [1]: absolute recovery over vacuum-assisted evaporative concentration; higher = better recovery. To be noted: enrichment method: VEC. Summed up:
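Standards were spiked into water samples before concentration, after concentration or not at all; volumes were 6 mL influent, 15 mL effluent and 60 mL surface or nanopure water. Spiking levels were 200 ng/L for nanopure and surface water and 1000 ng/L for wastewater, adjusted by class and compound. After evaporation at 55 °C and 20 mbar to about 0.3 mL, samples were brought to 0.4 mL, centrifuged, given internal standards and analysed by LC-HRMS/MS. Absolute recovery equals (response ratio pre − unspiked)/(post − unspiked) × 100, based on averages of ≥ 2 replicates.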

Series [2] can be described thus: LC retention time (Atlantis T3, 5-95% MeOH gradient, 0.1% formic acid); higher = more retained / less polar. Summed up:
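Retention times refer to reference standards measured by liquid chromatography with high-resolution tandem mass spectrometry. Separation was on an Atlantis T3 C18 column (3 × 150 mm, 3 μm) at 0.3 mL/min with a 5 to 95% methanol gradient over 17.5 min, both solvents carrying 0.1% formic acid. Positive and negative electrospray were run separately on a QExactive Plus, and TraceFinder peak integration (5 ppm tolerance, at least three points per peak) was reviewed by hand.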

The nature of series [3]: absolute recovery over mixed-bed multilayer solid-phase extraction; higher = better recovery. The note with it: enrichment method: SPE. The method, boiled down: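 Elution from a three-layer mixed-bed cartridge used basic followed by acidic ethyl acetate/methanol, after loading either 1000 mL of unfiltered nanopure water or 100–250 mL of wastewater that had been set to pH 6.5 and glass-fibre filtered. Standards went in before or after extraction, or were left out, at 200 ng/L (water) or 1000 ng/L (wastewater), with class exceptions. Internal standards were added afterwards, and measurement was by liquid chromatography with high-resolution tandem mass spectrometry in both ionisation modes. For absolute recovery, background-corrected response ratios of pre-spiked samples were compared with those of post-spiked samples and averaged over at least two replicates.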

In the case of `Cc1c(OCC(F)(F)F)ccnc1CS(=O)c1nc2ccccc2[nH]1` (stereo not drawn) [Lansoprazole], the results for the absolute recovery in series [1] (wastewater effluent) and in series [1] (wastewater influent) were 86.8% and 100%, respectively. The LC retention time in series [2] worked out at 17.1 min.
On the same counts, the results for `COc1ccc(CC[NH+](C)CCCC(C#N)(c2ccc(OC)c(OC)c2)C(C)C)cc1OC` (stereo not drawn) [Verapamil] are 98.2%, 97.4% and 15.1 min.
As to `CCc1cc(C)cc(CC)c1-c1c(OC(=O)C(C)(C)C)n2n(c1=O)CCOCC2` [Pinoxaden], the figures for the absolute recovery in series [1] (wastewater effluent) and in series [1] (wastewater influent) were 51.6% and 10.7%, respectively. The LC retention time in series [2] came out at 21.2 min.
`O=C([O-])C(F)(F)C(F)(F)C(F)(F)C(F)(F)F` [PFPA] yielded an LC retention time in series [2] of 12.4 min.
`C[N-]S(=O)(=O)C(F)(F)C(F)(F)C(F)(F)C(F)(F)C(F)(F)C(F)(F)C(F)(F)C(F)(F)F` [N-MeFOSA]: the absolute recovery in series [3] (surface water) turned out to be 50.3%; in series [3] (wastewater effluent), 61.7%. Further, in series [2], the LC retention time is 22.3 min.
With `CC1=CC(=O)[N-]S(=O)(=O)O1` [Acesulfam], the absolute recovery in series [3] (nanopure water) is 93.2%. The same molecule came in with an LC retention time in series [2] of 9.43 min.
Consider `O=C([O-])C(F)(F)C(F)(F)C(F)(F)C(F)(F)C(F)(F)F` [PFHxA], for which the absolute recovery in series [1] (wastewater effluent) is 95.2%; in series [1] (wastewater influent) it was 89.4%. Also, in series [2], the LC retention time came out at 18.8 min.
Molecule `O=c1ccc(=O)[nH][n-]1` [Maleic-hydrazide] gave an absolute recovery in series [3] (surface water) of 12.8%. For the same molecule, the LC retention time in series [2] stood at 5.88 min.
`[NH3+]C(CC(=O)N1CCn2c(nnc2C(F)(F)F)C1)Cc1cc(F)c(F)cc1F` (stereo not drawn) [Sitagliptin]: the absolute recovery in series [3] (nanopure water) came out at 53.8%; in series [3] (surface water), 67.1%. In series [2], the LC retention time was 12.6 min.
`NC(=O)N=C(N)N` [Guanylurea]: in series [3] (nanopure water), the absolute recovery is 42.6%. This molecule also showed an LC retention time in series [2] of 3.13 min.
Consider `CN(CC(=O)[O-])S(=O)(=O)C(F)(F)C(F)(F)C(F)(F)C(F)(F)C(F)(F)C(F)(F)C(F)(F)C(F)(F)F` [N-MeFOSAA], for which the results for the absolute recovery in series [3] (surface water) and in series [3] (wastewater effluent) were 80% and 95.4%, respectively. For the same molecule, the LC retention time in series [2] is 23.3 min.
`CC(=O)NCCCS(=O)(=O)[O-]` [Acamprosat]: the LC retention time in series [2] is 4.93 min.
For `[NH3+]CCc1ccc(O)c(O)c1` [Dopamine], the absolute recovery in series [3] (nanopure water) worked out at 23.9%. The molecule also had an LC retention time in series [2] of 4.36 min.
As to `O=C(NCC1CCCC[NH2+]1)c1cc(OCC(F)(F)F)ccc1OCC(F)(F)F` (stereo not drawn) [Flecainid], the absolute recovery is 105% in series [1] (wastewater effluent) and 106% in series [1] (wastewater influent). The LC retention time in series [2] turned out to be 14.5 min.
Consider `O=c1ncnc2[nH][nH]cc1-2` [Allopurinol], for which the absolute recovery in series [3] (nanopure water) came out at 113%. In addition, the LC retention time in series [2] turned out to be 6.21 min.
Take `CCOC(=O)Nc1cccc(OC(=O)Nc2ccccc2)c1` [Desmedipham D]: the absolute recovery in series [3] (nanopure water) was found to be 90.8%; in series [3] (surface water) it was 117%; in series [3] (wastewater effluent) it was 106%; in series [3] (wastewater influent), 76.2%. Moreover, the LC retention time in series [2] came to 18.6 min.
Consider `CC[N-]S(=O)(=O)C(F)(F)C(F)(F)C(F)(F)C(F)(F)C(F)(F)C(F)(F)C(F)(F)C(F)(F)F` [N-EtFOSA], for which the absolute recovery in series [3] (surface water) is 57.6%; in series [3] (wastewater effluent), 66.9%. In addition, the LC retention time in series [2] is 22.8 min.
`OCC(O)C(O)C(OC1OC(CO)C(O)C(O)C1O)C(O)CO` [D-Lactitol] had an LC retention time in series [2] of 2.76 min.
Turning to `Oc1ccc(C=Cc2cc(O)cc(O)c2)cc1` [Resveratrol], the absolute recovery in series [3] (nanopure water) came to 57.8%; in series [3] (surface water), 66.6%; in series [3] (wastewater effluent), 48.4%; in series [3] (wastewater influent) it was 68.9%. In series [2], the LC retention time amounted to 15.5 min.
Turning to `Nc1ncnc2c1ncn2C1OC(CO)C(O)C1O` (stereo not drawn) [Adenosine], the absolute recovery was determined as 82% in series [3] (nanopure water), 69.4% in series [3] (surface water) and 73.7% in series [3] (wastewater effluent). The molecule further came in with an LC retention time in series [2] of 7.57 min.
On to `Nc1nc(N)[nH+]c(N)n1` [Melamin], for which the absolute recovery in series [3] (nanopure water) worked out at 21.3%. The molecule also yielded an LC retention time in series [2] of 3.5 min.
Consider `CC(C)(C)[NH2+]CC(O)c1ccc(O)c(CO)c1` (stereo not drawn) [Albuterol], for which the values for the absolute recovery in series [1] (wastewater effluent) and in series [1] (wastewater influent) were 102% and 99.8%, respectively. For the same molecule, in series [2], the LC retention time turned out to be 8.59 min.
On to `CC(=O)Nc1c(C)n(C)n(-c2ccccc2)c1=O` [4-Acetamidoantipyrin (=N-Acetyl-4-Aminoantipyrin, 4-AAA)], for which the absolute recovery in series [3] (nanopure water) was determined as 96%; in series [3] (surface water), 84.5%; in series [3] (wastewater effluent), 87.5%. In addition, in series [2], the LC retention time amounted to 11.9 min.
On to `C[NH2+]CC(O)c1cccc(O)c1` (stereo not drawn) [Phenylephrine], for which the absolute recovery in series [3] (nanopure water) turned out to be 83.2%; in series [3] (surface water) it was 82%; in series [3] (wastewater effluent) it was 78.5%; in series [3] (wastewater influent), 86.1%. Moreover, the LC retention time in series [2] is 5.47 min.
For `COC(=O)c1ccccc1S(N)(=O)=O` [2-Aminosulfonyl-benzoicacid-methylester] the same measures were 118%, 101%, 102%, 91.4% and 12.9 min.
